Where two headings read alike, the source gives them in different places. Non-standard residues stand in square brackets, D forms with d. Residues, ends and D or L forms follow the SMILES beside them. Ac6c = NC1(C(=O)O)CCCCC1
Assays:
in vivo [1] = conditions: Beagle, dog
Protocol: (§1) The objective of the study conducted at ITR Laboratories Canada Inc (Baie d'Urfe, Quebec, Canada) was to determine the pharmacokinetic profile of ARV-1502 following single intravenous or intramuscular injection administration to Sprague-Dawley rats and Beagle dogs.
(§2) For the dog study, ARV-1502 was administered once IM (divided equally over 2 sites) and once IV (1 week apart) as detailed in Table 2. Following dosing, blood was collected at the same time points noted above for the rat study.
(§3) Aliquots of rat or Beagle plasma (20 μL) were spiked with standard peptide Onc72 (0.35 μg/mL plasma, 1.2 μL). Samples were diluted with aqueous TFA in two steps (0.2% v/v, 20 μL and 0.1% v/v, 260 μL) and loaded on an Oasis HLB 96-well-SPE-plate (5 mg sorbent per well, Waters). The samples were washed twice with aqueous TFA (0.1% v/v, 1 mL) and eluted in two steps with aqueous acetonitrile (30% v/v, 150 μL) containing formic acid (0.1% v/v). The fractions were dried in a vacuum centrifuge (SpeedVac, 60°C), reconstituted with aqueous methanol (75% v/v, 20 μL) containing formic acid (0.1% v/v), and diluted with aqueous acetonitrile (3% v/v, 100 μL) containing formic acid (0.1%).
(§4) A quadrupole-Orbitrap mass spectrometer (Q Exactive plus™, Thermo Scientific) was coupled online to an uHPLC (Vanquish™, Thermo Scientific). Separation was achieved on a Jupiter C18 column (inner diameter: 1 mm, length: 150 mm, particle size: 5 μm, pore size: 130 Å, Phenomenex Ltd.) at 55°C using a flow rate of 200 μL/min and a linear gradient of 3 to 23% (v/v) aqueous acetonitrile containing formic acid (0.1%) within 5 min.
(§5) ARV-1502 was quantitated by the peak area of an extracted ion chromatogram (XIC) obtained from the MS/MS using Xcalibur 4.0.27.21 software. The peak area of ARV-1502 corrected by using the peak area of Onc72.

[2] = dog, in vivo
Protocol: as §1, §2, §3, §4, §5

in vivo [3] = conditions: Sprague-Dawley, rat; for level at 0.5 h: plasma concentration after 30 min
Protocol: (§6) A series of eight blood samples (~0.5 mL each) was collected in rats on Day 1. Following IM administration, the blood was collected at 5, 15, 30, and 45 min and at 1, 1.5, 2, and 3-h post-dose. After IV administration, blood was collected at 2, 5, 15, 30, and 45 min and at 1, 1.5, and 2-h post-dose. Animals were euthanized after the last blood collection by carbon dioxide asphyxiation followed by cervical dislocation and discarded without further examination. Safety parameters monitored on the study were mortality and clinical signs. Body weights (BW) were recorded to calculate the dose only. Blood sampling was performed for pharmacokinetic evaluation.
as §3, §4
(§7) Pharmacokinetic datasets were evaluated with a PKSolver add-in for Microsoft Excel using a non-compartmental analysis (Zhang et al., [2010]).

[4] = rat, in vivo
Protocol: as §6, §3, §4, §7

CC(C)C[C@H](NC(=O)[C@H](Cc1ccc(O)cc1)NC(=O)[C@@H]1CCCN1C(=O)[C@H](CCCNC(=N)N)NC(=O)[C@@H]1CCCN1C(=O)[C@H](CCCCN)NC(=O)[C@H](CC(=O)O)NC(=O)[C@@H]1CCCN1C(=O)[C@H](CCCNC(=N)N)NC(=O)C1(N)CCCCC1)C(=O)N1CCC[C@H]1C(=O)N[C@@H](CCCNC(=N)N)C(=O)N1CCC[C@H]1C(=O)N[C@@H](CCCNC(=N)N)C(=O)N1CCC[C@H]1C(=O)N1CCC[C@H]1C(=O)N[C@@H](CCCNC(=N)N)C(=O)N1CCC[C@H]1C(=O)N[C@H](C(=O)N[C@@H](CCCNC(=N)N)C(N)=O)C(C)C [ARV-1502, Chex1-Arg20 amide] (H-[Ac6c]RPDKPRPYLPRPRPPRPVR-NH2)
half-life (in vivo [1]; im): 15.8 min | Vd (in vivo [1]; im, 0.75 mg/kg): 8.14 L | C0 (in vivo [1]; iv, 0.075 mg/kg): 1040 ng/mL | Cmax (in vivo [1]; iv, 0.075 mg/kg): 700 ng/mL | MRT (in vivo [1]; iv, 0.075 mg/kg): 7.07 min | Vd (in vivo [1]; iv, 0.075 mg/kg): 0.735 L | half-life (in vivo [1]; iv, 0.075 mg/kg): 7.6 min | Cmax (in vivo [1]; male, im, 0.75 mg/kg): 1000 ng/mL | Tmax (in vivo [1]; male, im, 0.75 mg/kg): 15 min | level at 5 min (in vivo [1]; male, im, 0.75 mg/kg, plasma concentration at 5 min): 940 ± 280 ng/mL | level at 0.25 h (in vivo [1]; male, im, 0.75 mg/kg, plasma concentration at 15 min): 1100 ± 200 ng/mL | AUC(0-inf) (in vivo [1]; male, iv, 0.075 mg/kg): 144 ng·h/mL | level at 2 min (in vivo [1]; male, iv, 75 ug/kg, plasma concentration 2 min after administration): 700 ng/mL | level at 0.5 h (in vivo [1]; male, iv, 75 ug/kg, plasma concentration after 30 min): 7.6 ± 1.3 ng/mL | clearance rate in dogs relative to the rate in rats [2]: around half | volume of distribution after IM, fold larger than the BV [2]: more than 9 fold | AUMC0→∞ ([2]; iv, 0.075 mg/kg): 820.3 μg·min^2/mL | k ([2]; iv, 0.075 mg/kg): 0.09 min⁻¹ | volume of distribution as share of circulating blood volume (BV) ([2]; iv, 0.075 mg/kg): ~ 84% | plasma concentration 2 min after administration ([2]; male, Beagle, iv, 75 ug/kg, 2 min): 690 ± 150 ng/mL | half-life (in vivo [3]; im): 24.2 min | MRT (in vivo [3]; iv, 0.25 mg/kg): 6.22 min | half-life (in vivo [3]; iv, 0.25 mg/kg): 15.4 min | Cmax (in vivo [3]; both, im, 2.5 mg/kg): 12000 ng/mL | Tmax (in vivo [3]; both, im, 2.5 mg/kg): 15 min | level at 5 min (in vivo [3]; both, im, 2.5 mg/kg, plasma concentration after 5 min): 11000 ± 3300 ng/mL | level at 0.5 h (in vivo [3]; both, im, 2.5 mg/kg): ~900 ng/mL | level at 3 h (in vivo [3]; both, im, 2.5 mg/kg, plasma concentration within 3 h): 16 ng/mL | AUC(0-inf) (in vivo [3]; both, iv, 0.25 mg/kg): 521 ng·h/mL | Cmax (in vivo [3]; both, iv, 0.25 mg/kg): 3410 ng/mL | Tmax (in vivo [3]; both, iv, 0.25 mg/kg): 2 min | level at 0.5 h (in vivo [3]; both, iv, 0.25 mg/kg): 64.2 ± 7.3 ng/mL | level at 2 h (in vivo [3]; both, iv, 0.25 mg/kg, plasma concentration after 2 h): 2 to 4 ng/mL | level at 5 min (in vivo [3]; female, im, 2.5 mg/kg, plasma concentration after 5 min (initial peptide level)): 13800 ± 1900 ng/mL | level at 0.25 h (in vivo [3]; female, im, 2.5 mg/kg, plasma concentration at 15 min): 19000 ± 4900 ng/mL | level at 5 min (in vivo [3]; male, im, 2.5 mg/kg, plasma concentration after 5 min (initial peptide level)): 8200 ± 1400 ng/mL | level at 0.5 h (in vivo [3]; male, im, 2.5 mg/kg): 1000 ng/mL | plasma concentration after 2 h ([4]; both, Sprague-Dawley, iv, 0.25 mg/kg, 2 h): 2.2 ± 0.4 ng/mL | Cmax extrapolated in proportion to dose [4]: ~ 34 μg/mL | volume of distribution after IM, fold higher than after IV [4]: more than 4 fold | AUMC0→∞ ([4]; iv, 0.25 mg/kg): 194.6 μg·min^2/mL | k ([4]; iv, 0.25 mg/kg): 0.045 min⁻¹ | plasma concentration lower in male rats than in female rats ([4]; iv, 0.25 mg/kg): around 25% | volume of distribution as share of the theoretical circulating blood volume ([4]; iv, 0.25 mg/kg): 85%
